{"source": "patent US10016424B2", "about": "“Method and pharmaceutical composition for use in the treatment of epilepsy” (INSERM (Institut National de la Sante et de la Recherche …, priority 2013, dated 2018)", "key": {"KARs": {"target": "T1, KARs (Mus musculus, UniProt P39087+Q61626)", "T1 construct": "from tissue; host or cells: dentate granule cells in pilocarpine-treated organotypic hippocampal/entorhinal slice cultures from WT mice (FVB/N)", "T1 sequence (P39087 32-908)": "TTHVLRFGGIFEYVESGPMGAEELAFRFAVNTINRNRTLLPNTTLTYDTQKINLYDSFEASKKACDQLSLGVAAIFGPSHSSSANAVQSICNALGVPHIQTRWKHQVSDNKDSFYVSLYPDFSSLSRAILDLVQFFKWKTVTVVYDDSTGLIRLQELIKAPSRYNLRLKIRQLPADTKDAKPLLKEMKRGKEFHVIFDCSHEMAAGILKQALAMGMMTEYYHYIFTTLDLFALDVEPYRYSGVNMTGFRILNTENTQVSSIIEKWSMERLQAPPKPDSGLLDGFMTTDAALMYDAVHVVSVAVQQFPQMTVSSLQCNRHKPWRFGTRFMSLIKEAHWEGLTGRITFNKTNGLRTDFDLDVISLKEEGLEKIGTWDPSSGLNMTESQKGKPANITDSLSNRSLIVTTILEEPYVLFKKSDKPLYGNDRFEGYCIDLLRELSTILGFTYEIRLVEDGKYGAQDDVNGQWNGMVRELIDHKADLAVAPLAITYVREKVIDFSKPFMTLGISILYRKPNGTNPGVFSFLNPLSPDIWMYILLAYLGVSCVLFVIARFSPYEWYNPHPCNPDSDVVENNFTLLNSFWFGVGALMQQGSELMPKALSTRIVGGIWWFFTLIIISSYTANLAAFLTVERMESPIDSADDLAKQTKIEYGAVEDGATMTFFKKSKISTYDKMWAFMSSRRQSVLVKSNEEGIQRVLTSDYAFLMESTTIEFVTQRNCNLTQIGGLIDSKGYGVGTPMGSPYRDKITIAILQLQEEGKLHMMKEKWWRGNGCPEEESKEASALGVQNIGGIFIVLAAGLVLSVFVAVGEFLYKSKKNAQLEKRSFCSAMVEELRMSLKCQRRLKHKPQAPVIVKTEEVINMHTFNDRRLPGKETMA", "T1 sequence (Q61626 15-979)": "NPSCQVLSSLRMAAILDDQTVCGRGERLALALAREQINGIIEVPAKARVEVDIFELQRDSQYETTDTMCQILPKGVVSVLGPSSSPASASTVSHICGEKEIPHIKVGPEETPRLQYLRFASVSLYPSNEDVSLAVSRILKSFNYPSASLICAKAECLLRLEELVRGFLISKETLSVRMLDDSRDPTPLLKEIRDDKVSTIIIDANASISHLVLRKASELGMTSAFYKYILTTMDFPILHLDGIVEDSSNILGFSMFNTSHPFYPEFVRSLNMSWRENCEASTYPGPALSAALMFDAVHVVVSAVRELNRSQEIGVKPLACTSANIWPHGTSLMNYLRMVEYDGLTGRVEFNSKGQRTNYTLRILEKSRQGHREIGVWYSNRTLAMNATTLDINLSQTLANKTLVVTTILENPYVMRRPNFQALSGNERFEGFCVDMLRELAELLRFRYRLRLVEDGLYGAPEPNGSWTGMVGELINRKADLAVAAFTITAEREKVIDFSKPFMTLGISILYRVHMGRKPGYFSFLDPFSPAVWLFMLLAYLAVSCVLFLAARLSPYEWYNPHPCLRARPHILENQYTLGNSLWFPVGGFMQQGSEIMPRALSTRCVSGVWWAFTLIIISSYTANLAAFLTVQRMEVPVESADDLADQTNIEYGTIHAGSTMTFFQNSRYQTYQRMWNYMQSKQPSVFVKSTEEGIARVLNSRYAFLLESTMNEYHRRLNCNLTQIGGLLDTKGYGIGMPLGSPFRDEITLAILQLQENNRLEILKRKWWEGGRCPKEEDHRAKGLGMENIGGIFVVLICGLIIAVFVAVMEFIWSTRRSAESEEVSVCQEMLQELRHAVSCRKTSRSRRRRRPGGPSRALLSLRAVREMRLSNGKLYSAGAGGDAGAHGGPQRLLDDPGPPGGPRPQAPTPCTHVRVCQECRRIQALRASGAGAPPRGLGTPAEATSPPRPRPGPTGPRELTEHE", "format": "cell-based", "conditions": "WT cultured slices; SYM2081 10 μM, UBP310 5 μM; Sr2+ conditions, 5 μM gabazine, 40 μM D-APV", "protocol": "Hippocampal/entorhinal cortex slices (350 μm) were prepared from pre-genotyped GluK2−/− and WT mice (P9-10, FVB/N background) using a McIlwain tissue chopper. Slices were placed on mesh inserts (Millipore # PICMORG50) inside culture dishes containing 1 ml of the following medium: MEM 50%, HS 25%, HBSS 25%, HEPES 15 mM glucose 6.5 mg/ml and insulin 0.1 mg/ml. Culture medium was changed every 2-3 days and slices maintained in an incubator at 37° C./5% CO2. Pilocarpine (0.5 μM) was added to the medium at 5 D.I.V and removed at 7 D.I.V; slices were utilized for experiments from 9 D.I.V.\nCultured or acute slices were individually transferred to a recording chamber maintained at 30-32° C. and continuously perfused (2 ml/min) with oxygenated normal or adapted ACSF containing 5 μM gabazine. Local field potentials were made in the granule cell layer of the DG with glass electrodes (2-3 MΩ; filled with normal ACSF) using a DAM-80 amplifier (low filter, 1 Hz; […], 3 KHz; World Precision Instruments, Sarasota, Fla.). For evoked synaptic transmission, electrical stimulation was performed with a bipolar NiCh electrode (#762000, AM systems). […] Signals were analyzed off-line using Clampfit 9.2 (PClamp) and MiniAnalysis 6.0.1 (Synaptosoft, Decatur, Ga.). In organotypic slices, spontaneous EPSCs were recorded at the reversal potential for GABAergic currents (Vh=−70 mV). To characterize the nature and kinetic properties of fast and slow events, miniature EPSCs (mEPSCs) evoked in Sr2+ conditions (external Ca2+ was substituted with 1.2 mM Sr2+) were recorded in DGCs from GluK2−/− and WT slices. Electrical stimulation was made in the molecular layer in the continued presence of 5 μM gabazine and 40 μM D-APV; asynchronous mEPSCs were measured during the 300 ms period after the stimulus artifact. […] Filtered traces were also analyzed by Fourier analysis (Hamming) using Clampfit 9.2. In acute hippocampal slices, intensity of antidromically-evoked bursts was quantified using coastline index (Epsztein et al., 2005)."}, "[1]": {"tested_on": "bursts driven by recurrent mossy fibers in DG", "experiment": "Antidromically evoked bursts (coastline burst index) in dentate gyrus of acute slices from pilocarpine-treated mice", "format": "cell-based, mouse", "conditions": "WT mice; bath application", "protocol": "All experiments were approved by the Institut National de la Santé et de la Recherche Médicale animal care and use committee of May 29, 2001 (2001-464) and the European community council directive of Nov. 24, 1986 (86/609/EEC). Mice (FVB/N background) had access to food and water ad libitum and were housed under a 12 h light/dark cycle at 22-24° C. Male GluK2−/− and WT mice (P60-80) were given scopolamine (1 mg/kg) subcutaneously (s.c.) 15 minutes prior to s.c. administration of pilocarpine (200-600 mg/kg). A ramp protocol was used whereby animals were given an initial dose of 200 mg/kg followed by half-doses every 30 minutes until seizures appeared. […] Diazepam (10 mg/kg) was administered 45 minutes after onset of SE. […]\nCultured or acute slices were individually transferred to a recording chamber maintained at 30-32° C. and continuously perfused (2 ml/min) with oxygenated normal or adapted ACSF containing 5 μM gabazine. […] Signals were analyzed off-line using Clampfit 9.2 (PClamp) and MiniAnalysis 6.0.1 (Synaptosoft, Decatur, Ga.). In organotypic slices, spontaneous EPSCs were recorded at the reversal potential for GABAergic currents (Vh=−70 mV). To characterize the nature and kinetic properties of fast and slow events, miniature EPSCs (mEPSCs) evoked in Sr2+ conditions (external Ca2+ was substituted with 1.2 mM Sr2+) were recorded in DGCs from GluK2−/− and WT slices. […]"}}, "data": [{"smiles": "Cc1cn(C[C@H](N)C(=O)O)c(=O)n(Cc2ccsc2C(=O)O)c1=O", "note": "[UBP310]", "values": [{"measurement": "effect on KAR-mediated mEPSCs", "setting": "KARs", "result": "abolished"}, {"measurement": "reduction of evoked bursts (coastline burst index)", "setting": "[1]", "result": 55, "unit": "%"}]}]}
